Laboratory results: ChEMBL document CHEMBL1201862, “PubChem BioAssay data set” (2004)
Activity calls are given as the source filed them.

Key:
[1] = reduction of Shn3 3'UTR-driven luciferase in osteoblasts – cell-based, Clone20 osteoblasts, firefly luciferase, cherry-picked, dose response (AID 624132); format: functional;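 further: firefly luciferase luminescence from reporter carrying the Shn3 3'UTR in osteoblasts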
[2] = loss of viability in HepG2 cells – cell-based, CellTiter-Glo, cherry-picked, cytotoxicity control for Shn3 inhibitor project, dose response (AID 624134); format: functional
[3] = non-specific 3'UTR reporter inhibition in Clone20-Shn3RL – cell-based, Renilla luciferase, cherry-picked, counter-screen for Shn3 inhibitor project, dose response (AID 624133); format: functional
[4] = reduced cellular PGC1a acetyl-lysine signal – cell-based, cherry-picked samples, dose response (AID 720514); format: functional;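 further: potency may reflect raised or lowered acetylation signal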
Aminopeptidase N = target: T1, Aminopeptidase N (Plasmodium falciparum FcB1/Columbia, UniProt O96935); test: malaria alanyl aminopeptidase activity blockers – biochemical, fluorogenic H-Leu-NHMec substrate, 1536-well (AID 1445); parameters: species or system Plasmodium falciparum 3D7, 3D7
T1 sequence (O96935 whole entry): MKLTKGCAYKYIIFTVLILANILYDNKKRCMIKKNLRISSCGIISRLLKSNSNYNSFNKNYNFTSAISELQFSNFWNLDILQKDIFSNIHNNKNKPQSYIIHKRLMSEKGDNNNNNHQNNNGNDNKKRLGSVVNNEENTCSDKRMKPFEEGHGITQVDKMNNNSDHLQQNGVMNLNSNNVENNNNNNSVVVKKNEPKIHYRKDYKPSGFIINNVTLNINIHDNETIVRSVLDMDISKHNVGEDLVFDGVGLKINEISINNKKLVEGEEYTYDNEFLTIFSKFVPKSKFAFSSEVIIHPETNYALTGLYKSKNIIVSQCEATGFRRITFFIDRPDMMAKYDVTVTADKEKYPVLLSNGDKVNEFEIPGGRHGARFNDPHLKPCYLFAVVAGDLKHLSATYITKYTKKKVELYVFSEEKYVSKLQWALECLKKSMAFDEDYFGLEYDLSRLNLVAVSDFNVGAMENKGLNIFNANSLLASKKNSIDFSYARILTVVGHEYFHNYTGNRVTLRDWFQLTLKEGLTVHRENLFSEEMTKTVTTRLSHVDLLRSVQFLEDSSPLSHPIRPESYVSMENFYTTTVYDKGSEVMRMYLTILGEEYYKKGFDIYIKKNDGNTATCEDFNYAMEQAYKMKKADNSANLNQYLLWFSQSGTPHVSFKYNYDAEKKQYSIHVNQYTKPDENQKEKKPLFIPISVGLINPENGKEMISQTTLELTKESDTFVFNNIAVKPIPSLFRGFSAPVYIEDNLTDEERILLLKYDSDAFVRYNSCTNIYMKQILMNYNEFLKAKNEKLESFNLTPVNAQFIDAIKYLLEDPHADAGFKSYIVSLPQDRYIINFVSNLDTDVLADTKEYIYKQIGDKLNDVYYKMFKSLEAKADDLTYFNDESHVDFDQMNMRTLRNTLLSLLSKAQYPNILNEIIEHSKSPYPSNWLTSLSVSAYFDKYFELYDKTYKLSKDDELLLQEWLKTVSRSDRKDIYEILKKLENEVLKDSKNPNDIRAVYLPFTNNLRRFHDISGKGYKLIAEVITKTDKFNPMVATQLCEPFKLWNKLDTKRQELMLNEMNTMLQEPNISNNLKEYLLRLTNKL

[5] = viability loss in Vero cells – cytotoxicity control for Vif-APOBEC3G degradation inhibitor project, dose response (AID 1117358); format: functional; conditions: Vero
[6] = M. tuberculosis H37Rv growth inhibitors, H37Rv strain (AID 1626); format: functional
H9c2 = test: cells; format: functional, cell-based; conditions: Rattus norvegicus, H9c2, Myocardium;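 further: confirmatory concentration-response retest of ultra-high-throughput screening hits for modulation of myocardial damage; cell death induced by hydrogen peroxide oxidative stress; compound pretreatment for 60 min then peroxide exposure for 2 h; potency is for protecting the cells against peroxide damage rather than for killing them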
Paired box protein Pax-8 = Paired box protein Pax-8 (Homo sapiens, UniProt Q06710); test: PAX8 transcriptional activity inhibition in RMG-I – RMG-I cells, luciferase, cherry-pick, dose response (AID 687027); format: functional, cell-based;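 further: luciferase reporter driven by Pax8 target thyroperoxidase promoter measured by SteadyGlo luminescence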
[7] = OVCAR8 cell viability loss – plate reader, dry powder samples, PAX8 project, dose response (AID 743197); format: functional, cell-based; conditions: OVCAR-8
[8] = A2780 cell killing – plate reader, dry powder samples, cytotoxicity control, dose response (AID 743046); format: functional, cell-based
[9] = OVCAR-3 cell viability loss – plate reader, dry powder samples, PAX8 inhibitor project, dose response (AID 743044); format: functional, cell-based
[10] = CellTiter-Glo luminescence survival assay, SW480 colon tumor line, concentration-response curve, half-maximal inhibitory concentration (AID 1117338); format: functional
[11] = RKO cell viability reduction, dose response, CellTiter-Glo luminescence (AID 1117322); format: functional
[12] = cytotoxicity toward HCT116 cells – cell-based, CellTiter-Glo luminescence, IC50, dose response (AID 1117332); format: functional; conditions: HCT-116
[13] = SNU-C1 cell viability reduction, dose response, CellTiter-Glo luminescence (AID 1117323); format: functional, cell-based
[14] = cytotoxicity toward Colo320 cells – cell-based, CellTiter-Glo luminescence, IC50, dose response (AID 1117334); format: functional; conditions: COLO 320
[15] = cytotoxicity toward HT-29 cells – cell-based, CellTiter-Glo luminescence, IC50, dose response (AID 1117330); format: functional
[16] = Reduced DLD-1 viability, concentration-response, CellTiter-Glo luminescence (AID 1117352); format: functional

Chain of Paired box protein Pax-8 (Q06710 whole entry): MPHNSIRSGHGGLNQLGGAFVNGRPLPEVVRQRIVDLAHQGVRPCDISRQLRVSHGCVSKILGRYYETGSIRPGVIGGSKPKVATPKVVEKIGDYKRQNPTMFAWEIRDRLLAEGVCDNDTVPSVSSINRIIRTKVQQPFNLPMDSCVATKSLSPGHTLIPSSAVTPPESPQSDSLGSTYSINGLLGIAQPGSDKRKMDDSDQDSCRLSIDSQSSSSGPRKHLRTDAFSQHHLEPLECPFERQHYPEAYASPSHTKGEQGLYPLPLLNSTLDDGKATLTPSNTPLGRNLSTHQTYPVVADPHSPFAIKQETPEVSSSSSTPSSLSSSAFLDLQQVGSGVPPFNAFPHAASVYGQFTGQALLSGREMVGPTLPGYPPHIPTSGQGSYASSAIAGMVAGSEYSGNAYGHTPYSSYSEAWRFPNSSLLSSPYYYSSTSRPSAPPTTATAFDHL

For `COc1ccccc1NC(=O)Cn1c(C)cc(=O)c2cccc(OC)c21`, which AC50 [1] is on record?
The AC50 was 3.16 µM (active).

And the AC50 [2]?
The AC50 was 48.1 µM (active).

What about the AC50 [3] of the same molecule?
Its AC50 is 4.46 µM (active).

What about the AC50 [4] of the same molecule?
The AC50 was 35.8 µM (active).

With `CC(=O)Nc1ccc(S(=O)(=O)Nc2cccc(-c3csc(C)n3)c2)cc1` as the molecule, how does the IC50 (Aminopeptidase N) read?
The IC50 was 58.2 µM (active).

Which CC50 [5] does the source give for `O=C(CCNS(=O)(=O)c1ccc(Cl)cc1)NCc1cccnc1` here?
Its CC50 is > 40 µM (active).

What does the source list for `C=CCOc1ccc(/C=N/c2ccc(OC)cc2)c(O)c1`?
IC50 [6]: > 100 µM (active); IC50 (H9c2): 9.42 µM (active)

Which results are given for `C[C@@H]1CN([C@H](C)CO)C(=O)c2cc(NS(=O)(=O)c3cccs3)ccc2O[C@@H](C)CCCCO[C@H]1CN(C)Cc1ccc(C(F)(F)F)cc1`?
AC50 (Paired box protein Pax-8): 8.66 µM (active); AC50 [7]: > 70 µM (inactive)

With `C[C@@H]1CCCCO[C@@H](CN(C)Cc2ccc(Cl)c(Cl)c2)[C@H](C)CN([C@H](C)CO)C(=O)c2cc(NC(=O)c3ccccc3)ccc2O1` as the molecule, how does the AC50 (Paired box protein Pax-8) read?
The AC50 was 14 µM (active).

What about the AC50 [8] of the same molecule?
The AC50 was 33.8 µM (active).

What about the AC50 [9] of the same molecule?
Its AC50 is 3.16 µM (active).

And the AC50 [7]?
Its AC50 is 27.5 µM (active).

Which results are given for `C[C@@H]1CN([C@@H](C)CO)C(=O)Cc2cc(NC(=O)NC3CCCCC3)ccc2O[C@@H]1CN(C)Cc1ccc(-c2ccccc2)cc1`?
AC50 (Paired box protein Pax-8): 30.6 µM (active); AC50 [8]: 0.296 µM (active)

Which AC50 [4] does the source give for `O=C(Nc1cccc(F)c1)N1CC(=O)N2[C@@H](CO)[C@@H](c3ccc(C#Cc4cccnc4)cc3)[C@@H]2C1` here?
Its AC50 is 4.54 µM (active).

What does the source list for `O=C(O)c1ccccc1S` [THIOSALICYLIC ACID]?
IC50 [10]: > 20 µM (inactive); IC50 [11]: > 20 µM (inactive); IC50 [12]: > 20 µM (inactive); IC50 [13]: > 20 µM (inactive); IC50 [14]: > 20 µM (inactive); IC50 [15]: > 20 µM (inactive); IC50 [16]: > 20 µM (inactive)
